This passage reports Ki results from ChEMBL document CHEMBL1141946, “Inhibitors of phenylethanolamine N-methyltransferase devoid of alpha2-adrenoceptor affinity” (Bioorg Med Chem Lett, 2005).

The target in the first test is T1, Adrenergic receptor alpha-2 (Homo sapiens, UniProt P08913+P18825+P18089).
T1 sequence (P08913 whole entry): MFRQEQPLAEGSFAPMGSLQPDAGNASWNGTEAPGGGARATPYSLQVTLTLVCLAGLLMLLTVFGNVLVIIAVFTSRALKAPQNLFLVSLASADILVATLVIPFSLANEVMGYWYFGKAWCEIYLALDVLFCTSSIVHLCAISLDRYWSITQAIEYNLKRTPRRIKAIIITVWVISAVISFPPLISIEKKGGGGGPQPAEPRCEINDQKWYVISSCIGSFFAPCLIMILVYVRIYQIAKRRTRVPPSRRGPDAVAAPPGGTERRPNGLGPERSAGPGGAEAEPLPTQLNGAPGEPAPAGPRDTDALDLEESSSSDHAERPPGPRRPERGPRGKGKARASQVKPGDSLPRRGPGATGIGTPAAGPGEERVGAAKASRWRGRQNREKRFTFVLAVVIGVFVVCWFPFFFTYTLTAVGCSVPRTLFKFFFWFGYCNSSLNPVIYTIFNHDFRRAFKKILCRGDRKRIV
T1 sequence (P18825 whole entry): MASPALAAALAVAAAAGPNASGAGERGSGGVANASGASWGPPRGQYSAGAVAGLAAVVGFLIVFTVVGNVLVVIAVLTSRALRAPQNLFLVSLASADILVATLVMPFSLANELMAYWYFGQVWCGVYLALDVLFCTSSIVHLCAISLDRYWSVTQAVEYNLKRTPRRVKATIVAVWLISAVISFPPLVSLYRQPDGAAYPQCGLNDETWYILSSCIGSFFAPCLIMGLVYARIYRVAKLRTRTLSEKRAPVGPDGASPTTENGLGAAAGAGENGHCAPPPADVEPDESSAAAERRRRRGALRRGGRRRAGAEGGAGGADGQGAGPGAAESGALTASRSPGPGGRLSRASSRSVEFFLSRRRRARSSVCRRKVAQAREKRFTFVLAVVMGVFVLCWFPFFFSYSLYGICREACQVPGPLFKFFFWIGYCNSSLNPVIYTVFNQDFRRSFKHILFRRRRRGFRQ
T1 sequence (P18089 whole entry): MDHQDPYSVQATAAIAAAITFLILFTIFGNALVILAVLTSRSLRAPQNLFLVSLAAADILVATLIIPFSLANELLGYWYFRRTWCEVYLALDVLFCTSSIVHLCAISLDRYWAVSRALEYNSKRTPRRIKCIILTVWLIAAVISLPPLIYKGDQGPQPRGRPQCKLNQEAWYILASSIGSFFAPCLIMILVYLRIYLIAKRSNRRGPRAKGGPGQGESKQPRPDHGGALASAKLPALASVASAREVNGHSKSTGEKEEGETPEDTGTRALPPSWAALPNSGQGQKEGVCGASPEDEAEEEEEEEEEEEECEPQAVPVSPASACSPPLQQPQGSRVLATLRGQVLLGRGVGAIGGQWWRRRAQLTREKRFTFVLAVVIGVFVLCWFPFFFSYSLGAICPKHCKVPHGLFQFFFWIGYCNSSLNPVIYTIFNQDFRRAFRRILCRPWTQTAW
The test can be described thus: Displacement of [3H]clonidine from Adrenergic alpha-2 receptor. The class given is protein assay.
Conditions: not given
In general terms: In a radioligand displacement assay an active substance lowers the binding of a labelled ligand.
Broadly, the Ki is the dissociation constant of the complex between target and ligand, obtained from inhibition or displacement. As for `CC(C)C1Cc2ccc(Br)cc2CN1` (centres undefined), the Ki is 3.9 µM.
Same read-out and setting: as for `N#Cc1ccc2c(c1)CNC(C(F)(F)F)C2` (racemic), the figure is 2900 µM.
The same measure, in the same setting: then `FC(F)(F)C1Cc2ccc(Cl)cc2CN1` (racemic), with more than 1000 µM; and `Clc1ccc2c(c1Cl)CNCC2`, with 0.021 µM.
For `NS(=O)(=O)c1ccc2c(c1)CNC(CO)C2` (centres undefined), the Ki was found to be 1400 µM.
`FC(F)(F)C1Cc2ccccc2CN1` (centres undefined) returned a Ki of 400 µM.
In turn, `CS(=O)(=O)c1ccc2c(c1)CNC(C(F)(F)F)C2` (racemic) yielded a Ki of 3900 µM.
`CC(C)C1Cc2ccc([N+](=O)[O-])cc2CN1` (racemic): the Ki was 36 µM.
The compound `Ic1ccc2c(c1)CNCC2` had a Ki of 0.22 µM.
In the case of `FC(F)(F)c1ccc2c(c1)CNC(C(F)(F)F)C2` (racemic), the Ki was more than 1000 µM.
`CC1Cc2ccc(Br)cc2CN1` (racemic) yielded a Ki of 1.1 µM.
Same read-out and setting: as for `FC(F)(F)C1Cc2ccc(Br)cc2CN1` (racemic), the figure is more than 1000 µM; as for `NS(=O)(=O)c1ccc2c(c1)CNC(C(F)(F)F)C2` (racemic), more than 1000 µM; as for `CCNS(=O)(=O)c1ccc2c(c1)CNC(C(F)(F)F)C2` (racemic), more than 1000 µM.
Same read-out and setting: then `FC(F)(F)C1Cc2ccc(I)cc2CN1` (racemic), with more than 1000 µM.
In the case of `O=[N+]([O-])c1ccc2c(c1)CNC(C(F)(F)F)C2` (racemic), the Ki turned out to be 1400 µM.
`CCC1Cc2ccc([N+](=O)[O-])cc2CN1` (racemic) gave a Ki of 28 µM.
The compound `CCC1Cc2ccc(Br)cc2CN1` (racemic) registered a Ki of 1.2 µM.

The test is the same for the next values; noted with them: read-out: Ki.
On to `NS(=O)(=O)c1ccc2c(c1)CNCC2`, for which the Ki came to 100 µM.
